One assay deals with T1, human hexosaminidase A (Homo sapiens, UniProt P06865+P07686).
T1 construct: from tissue; host or cells: dried blood spot from a random newborn
T1 sequence (P06865 89-529): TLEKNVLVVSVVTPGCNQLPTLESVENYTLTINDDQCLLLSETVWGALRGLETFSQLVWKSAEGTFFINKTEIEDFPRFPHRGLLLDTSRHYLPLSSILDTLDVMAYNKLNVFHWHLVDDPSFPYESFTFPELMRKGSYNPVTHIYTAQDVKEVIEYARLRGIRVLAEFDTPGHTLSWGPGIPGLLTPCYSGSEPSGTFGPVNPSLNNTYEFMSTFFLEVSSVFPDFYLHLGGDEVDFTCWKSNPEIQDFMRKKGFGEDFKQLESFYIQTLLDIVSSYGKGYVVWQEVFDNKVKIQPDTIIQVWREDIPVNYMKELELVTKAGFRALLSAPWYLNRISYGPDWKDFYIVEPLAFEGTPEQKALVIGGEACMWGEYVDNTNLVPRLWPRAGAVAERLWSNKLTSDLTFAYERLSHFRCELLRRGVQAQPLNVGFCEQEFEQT
T1 sequence (P07686 122-556): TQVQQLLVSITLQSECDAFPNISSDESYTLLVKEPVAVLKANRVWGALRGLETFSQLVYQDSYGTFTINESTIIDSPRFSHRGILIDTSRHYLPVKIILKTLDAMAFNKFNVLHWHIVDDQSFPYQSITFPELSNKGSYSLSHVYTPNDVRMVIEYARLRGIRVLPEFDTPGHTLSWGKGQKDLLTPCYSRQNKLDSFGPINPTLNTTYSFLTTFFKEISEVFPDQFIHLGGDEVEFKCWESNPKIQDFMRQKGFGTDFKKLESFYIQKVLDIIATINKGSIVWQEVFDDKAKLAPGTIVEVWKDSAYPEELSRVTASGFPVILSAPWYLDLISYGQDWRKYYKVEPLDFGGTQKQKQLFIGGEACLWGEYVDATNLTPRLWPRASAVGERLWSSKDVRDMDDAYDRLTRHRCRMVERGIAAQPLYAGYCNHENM
Put plainly: Block of endogenous hexosaminidase A in dried blood spots in the GALNS assay. It counts as biochemical. As to conditions: 1 mM Z-PUG-NAc in assay cocktail with dried blood spot. As to the method:
Experiment 1. A 3 mm punch of a dried blood spot from a random newborn is incubated with 0.03 mL of assay cocktail consisting of 1 mM GALNS substrate in 50 mM ammonium formate pH 4.0 containing 7.5 mM barium acetate, 5.0 mM cerium acetate, 1 mM Z-PUG-NAc, and 0.01 mg of bacterial beta-N-acetylgalactosaminidase. The mixture also contains 0.005 mM internal standard. After 16 hrs at 37° C. with shaking, the mixture is quenched with 0.12 mL of acetonitrile and the sample plate is centrifuged to pellet the precipitate. Supernatant (0.12 mL) is transferred to a new plate, and 0.12 mL of water is added. The plate is placed on the autosampler of the UHPLC-MS/MS instrument (Waters Xevo TQ MS/MS with a Waters Acquity UHPLC system). A portion of the sample (0.01 mL) is injected, and the GALNS product (substrate minus sulfate), the internal standard, and the aglycones derived from the GALNS product and internal standard are quantified by multiple reaction monitoring (MS/MS). Note the internal standard added, like the GALNS product, is converted to its aglycone by the addition of bacterial beta-N-acetylgalactosaminidase.

Assay [1] has as its target T2, iduronic acid 2-sulfatase (Homo sapiens, UniProt P22304).
T2 construct: from tissue; host or cells: dried blood spot (3 mm punch)
T2 sequence (P22304 34-550): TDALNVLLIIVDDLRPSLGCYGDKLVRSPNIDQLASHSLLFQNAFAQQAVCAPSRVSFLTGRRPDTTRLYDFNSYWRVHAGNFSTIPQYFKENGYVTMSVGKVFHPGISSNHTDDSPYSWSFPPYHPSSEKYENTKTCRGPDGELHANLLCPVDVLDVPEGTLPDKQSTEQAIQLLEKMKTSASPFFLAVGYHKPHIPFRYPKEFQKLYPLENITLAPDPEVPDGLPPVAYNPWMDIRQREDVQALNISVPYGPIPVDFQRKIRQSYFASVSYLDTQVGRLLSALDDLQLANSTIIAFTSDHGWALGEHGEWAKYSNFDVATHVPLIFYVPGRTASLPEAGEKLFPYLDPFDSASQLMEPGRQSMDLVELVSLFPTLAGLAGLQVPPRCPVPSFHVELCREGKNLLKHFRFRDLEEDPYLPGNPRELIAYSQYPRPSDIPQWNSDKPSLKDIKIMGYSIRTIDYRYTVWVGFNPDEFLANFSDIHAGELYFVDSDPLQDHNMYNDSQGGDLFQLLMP
Put plainly: Sulfatase assay for MPS-II with second enzyme alpha-L-iduronidase. It counts as biochemical. As to conditions: with iduronidase versus without. As to the method: In the assay, a second enzyme, alpha-L-iduronidase (a glycohydrolase) is added to the assay cocktail, which converts Initial MPS-II Product to Final MPS-II Product by removing the iduronic acid residue leaving the aglycone. The iduronidase can be present in the assay cocktail that is incubated with the dried blood spot, or it can be added after the first incubation with the dried blood spot followed by a second incubation period. The amount of iduronidase added is sufficient to convert all Initial MPS-II Product to Final MPS-II Product. The assay cocktail also contains Initial MPS-II Internal Standard (same as Initial MPS-II Product but, for example, with 5 deuteriums in the benzoyl group), which is converted by iduronidase to Final MPS-II Internal Standard. Both Final MPS-II Product and Final MPS-II Internal Standard are detected by tandem mass spectrometry, which enables the amount of Final MPS-II Product to be quantified. […] The analytes are detected by multiple reaction monitoring.
Thus the assay sensitivity has been improved by about 100-fold. […] With the assay of the invention, this desulfation is of no concern because the product being detected is the aglycone (Final MPS-II Product).

With `CC(=O)N[C@H]1/C(=N/OC(=O)Nc2ccccc2)O[C@H](CO)[C@@H](O)[C@@H]1O` [Z-PUG-NAc, (Z)—O-(2-acetamido-2-deoxy-D-glucopyranosylidene)-amino N-phenylcarbamate], at human hexosaminidase A, the “inhibition of hexosaminidase A” value is “fully block hexosaminidase A”.

B1: iduronidase: human alpha-L-iduronidase (a glycohydrolase) obtained by overexpression in mammalian cells, second enzyme (protein, UniProt P35475 28-653, looked up)
Alpha-L-iduronidase: APHLVHVDAARALWPLRRFWRSTGFCPPLPHSQADQYVLSWDQQLNLAYVGAVPHRGIKQVRTHWLLELVTTRGSTGRGLSYNFTHLDGYLDLLRENQLLPGFELMGSASGHFTDFEDKQQVFEWKDLVSSLARRYIGRYGLAHVSKWNFETWNEPDHHDFDNVSMTMQGFLNYYDACSEGLRAASPALRLGGPGDSFHTPPRSPLSWGLLRHCHDGTNFFTGEAGVRLDYISLHRKGARSSISILEQEKVVAQQIRQLFPKFADTPIYNDEADPLVGWSLPQPWRADVTYAAMVVKVIAQHQNLLLANTTSAFPYALLSNDNAFLSYHPHPFAQRTLTARFQVNNTRPPHVQLLRKPVLTAMGLLALLDEEQLWAEVSQAGTVLDSNHTVGVLASAHRPQGPADAWRAAVLIYASDDTRAHPNRSVAVTLRLRGVPPGPGLVYVTRYLDNGLCSPDGEWRRLGRPVFPTAEQFRRMRAAEDPVAAAPRPLPAGGRLTLRPALRLPSLLLVHVCARPEKPPGQVTRLRALPLTQGQLVLVWSDEHVGSKCLWTYEIQFSQDGKAYTPVSRKPSTFNLFVFSPDTGAVSGSYRVRALDYWARPGPFSDPVPYLEVPVPRGPPSPGNP
As to B1, the “improvement of assay sensitivity by second enzyme” value in assay [1] is reported as “about 100 fold”.

For the origin of these results see US10196668B2, “Reagents and methods for screening MPS I, II, IIIA, IIIB, IVA, VI, and VII” (University of Washington through its Center for …, priority 2013, dated 2019).
